Test results reported in patent US20070048250A1, “Methods of treating concomitant constipation in a cancer treatment regimen including imexon” (AmpliMed Corporation, priority 2005, published 2007).

Assays:
[1] = tested on: human tumor cell lines; details: cited from earlier work
[2] = tested on: mast cell tumors; details: dog, in vivo; cited from earlier work
[3] = combined with cisplatin, dacarbazine, melphalan, cytarabine, 5-fluorouracil, gemcitabine, or docetaxel; cited from earlier work
[4] = tested on: human lymphoma, melanoma, and prostate cancer cell lines; details: mouse, in vivo; cited from earlier work
[5] = tested on: gastrointestinal transit of a charcoal meal; assay: GLP study, gastrointestinal transit of a charcoal meal in rats; assay type: in vivo; details: intravenous, 100 mg/kg
Description: Following the unexpected identification of constipation toxicities in patients being treated with imexon in a cancer treatment regimen, a GLP (good laboratory practices) study was undertaken to evaluate the effects of imexon on the gastrointestinal transit of a charcoal meal in rats.

[6] = tested on: cancer patients; details: phase I; cited from earlier work
[7] = tested on: fresh human tumor cell lines; details: cited from earlier work

In the case of `N=C1NC(=O)N2CC12` (stereo not shown) [imexon, 4-imino-1,3-diazabicyclo[3.1.0]-hexan-2-one], the “activity against a variety of human tumor cell lines in culture” value [1] is given as “active”, the “tumor response in dogs with mast cell tumors” value [2] is given as “Objective responses have been observed” and the effect of combination [3] is given as “synergistic therapeutic cytotoxic effect”. For the same compound, the “activity against human lymphoma, melanoma, and prostate cancer cell lines in SCID mice” value [4] was “active”, the “effect on gastric emptying” value [5] was “reduction in gastric emptying” and the “effect on gastrointestinal transit” value [5] was “statistically significant inhibition of gastrointestinal transit”. For the same compound, the clinical response [6] was “produced objective responses or stabilized neoplastic diseases”, the tolerability [6] was “well tolerated” and the “activity against fresh human tumor cell lines in clonogenic assay” value [7] was “active”. For the same compound, the “cytotoxicity to multiple myeloma in the clonogenic assay” value ([7]; multiple myeloma) was “selective cytotoxicity”.
